A short description of one series: Log D. Format: physicochemical.
A short description of the next series: Solubility. In kind it is physicochemical.
The subject of series [1] is TSP-1 activation of latent TGF-β. The experiment in a line: cell-based assay of TSP1 activation of latent TGF-β (Table 3; Secondary Assay of Table 1). Also on record: species or system human. The procedure: To specifically assess activity of compounds in liver cell specific assays, two different assays were used. In the first, human hepatic stellate cells were incubated overnight in low serum media to condition the media with secreted latent TGF-β. Purified TSP1 either preincubated with compounds or not will be added to cultures and then conditioned media harvested to assess TGF-β biological activity using the R&D Systems ELISA as above. Hepatic stellate cells will be purchased from commercial sources. Although hepatic stellate cells are the primary drivers of liver fibrosis, conditions which drive liver fibrosis can induce hepatocyte TSP-1 expression which can then have paracrine effects on controlling TGF-β activation in hepatic stellate cells. Furthermore, TGF-β can negatively impact hepatocyte regeneration following injury. Therefore, the ability of compounds to blockTSP-1 activation of latent TGF-β will also be assessed in cultured primary human hepatocytes following the protocol described for the hepatic stellate cells. Similar approaches have successfully been used to screen compounds which inhibit human myeloma cell derived latent TGF-β activation by TSP-1 (Lu et al. (2016) Am J Pathol 186:678-690).

A short description of series [2]: Pharmacokinetics (% F, T1/2, Tmax). The settings on record: in vivo.
The target of series [3] is T1, purified human platelet TSP-1 (activation of recombinant latent TGF-β1) (Homo sapiens, UniProt P07996).
T1 construct: purified human platelet TSP-1 was incubated with compounds; from tissue; host or cells: human platelets
T1 sequence (P07996 19-1170): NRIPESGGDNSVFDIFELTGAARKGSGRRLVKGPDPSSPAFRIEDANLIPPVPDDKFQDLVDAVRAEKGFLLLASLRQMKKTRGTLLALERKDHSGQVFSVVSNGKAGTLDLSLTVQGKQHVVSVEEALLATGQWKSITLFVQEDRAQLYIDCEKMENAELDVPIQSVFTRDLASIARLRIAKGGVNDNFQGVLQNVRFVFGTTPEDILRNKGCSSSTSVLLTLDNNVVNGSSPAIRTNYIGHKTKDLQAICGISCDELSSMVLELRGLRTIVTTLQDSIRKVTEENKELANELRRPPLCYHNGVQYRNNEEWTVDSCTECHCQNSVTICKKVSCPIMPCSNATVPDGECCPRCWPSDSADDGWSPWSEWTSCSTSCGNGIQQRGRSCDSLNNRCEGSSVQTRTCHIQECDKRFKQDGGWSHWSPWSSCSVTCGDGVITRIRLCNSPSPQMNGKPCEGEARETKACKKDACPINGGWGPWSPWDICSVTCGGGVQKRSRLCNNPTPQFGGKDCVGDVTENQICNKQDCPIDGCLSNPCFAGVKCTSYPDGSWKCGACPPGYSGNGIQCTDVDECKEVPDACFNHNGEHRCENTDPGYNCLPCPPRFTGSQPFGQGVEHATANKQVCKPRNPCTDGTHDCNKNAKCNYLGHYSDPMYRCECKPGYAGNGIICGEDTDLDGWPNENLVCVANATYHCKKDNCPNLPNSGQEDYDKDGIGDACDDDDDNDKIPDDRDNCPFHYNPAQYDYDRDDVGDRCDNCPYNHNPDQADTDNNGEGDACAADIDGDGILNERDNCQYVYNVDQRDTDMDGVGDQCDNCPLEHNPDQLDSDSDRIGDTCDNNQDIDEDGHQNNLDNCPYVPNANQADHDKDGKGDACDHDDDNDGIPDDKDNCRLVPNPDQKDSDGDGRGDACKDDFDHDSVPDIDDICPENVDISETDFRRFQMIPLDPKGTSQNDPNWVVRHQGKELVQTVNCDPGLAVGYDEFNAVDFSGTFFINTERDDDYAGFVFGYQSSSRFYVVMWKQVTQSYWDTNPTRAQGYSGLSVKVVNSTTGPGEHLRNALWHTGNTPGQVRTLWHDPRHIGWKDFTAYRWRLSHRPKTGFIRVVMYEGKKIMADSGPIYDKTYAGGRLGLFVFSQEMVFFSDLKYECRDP
Nature of the series: ELISA-based screening assay: TSP-1 activation of recombinant latent TGF-β1. The settings on record: for % Inhibition at 50 pM: Table 2, 5e-05 µM. Format: biochemical. As to the method: For initial screening, an ELISA-based screening assay was used in which purified human platelet TSP-1 was incubated with compounds and then incubated with recombinant latent TGF-β1 (purchased from R&D Systems). Activity is measured in a commercially available ELISA which detects only active TGF-β (R &D Systems). Activity in the presence of compounds is compared to activity in TSP-1+latent TGF-β samples without inhibitory compounds (Lu et al. (2016) Am J Pathol 186:678-690).
For orientation: ELISA stands for enzyme-linked immunosorbent assay.

The nature of series [4]: Human liver microsomal stability. Format: in vitro ADME. The settings on record: human liver microsomes; read-out: Human Liver Microsomal Stability t1/2.
Series [5] is described as follows: Rat liver microsomal stability. In kind it is in vitro ADME. The settings on record: rat liver microsomes; read-out: Rat Liver Microsomal Stability t1/2.
The conditions of series [6]: 30 mg/kg i.p., 3 times weekly, 15 weeks; cited from earlier work.
A further series relates to MSCs. Nature of the series: Osteoblast differentiation by MSCs under osteogenic conditions. In kind it is cell-based. The settings on record: osteogenic media, 20 days; TGF-β 5 ng/mL, TSP1 10 nM, LSKL 25 μM. The procedure: Referring to FIG. 1A, MSCs were grown to confluence in basal (control) media. Cells were treated with control growth media, osteogenic media, or osteogenic media with TGF-β (5 ng/mL) or stripped TSP1 (10 nM), TSP1+LSKL (SEQ ID NO:1) (25 μM), TSP1+SLLK (SEQ ID NO:2) (25 μM control peptide), or TSP1+anti-TGF-β (5 μg/mL). Cultures were fed daily for 20 days. Alkaline phosphatase staining is representative of triplicate wells.
Referring to FIG. 1B, cells were treated every 2 days for 20 days with MSC growth media (control) or osteogenic media with TGF-β (5 ng/mL) or TSP1 (10 nM) daily treatment with 25 μM LSKL (SEQ ID NO:1) or SLLK (SEQ ID NO:2) peptides. RNA isolated from cells was used for RT-PCR analysis of Runx2 expression. Samples were run in duplicate and each experimental treatment in triplicate.

The conditions of series [7]: cited from earlier work.
The subject of the next series is CAG-heparanase MM cells. Nature of the series: PAI-1 promoter luciferase reporter assay of conditioned media of CAG-heparanase MM cells treated with TSP1. In kind it is cell-based, human. The settings on record: 67 nM TSP1, conditioned media. The procedure:
Referring to FIG. 4B, CAG-heparanase MM cells were treated with 67 nM TSP1 and conditioned media were assessed for TGF-β activity using PAI-1 promoter luciferase reporter assay. There is ˜[…] TGF-β in the added TSP1 and LSKL (SEQ ID NO:1) blocks 80% of the CAG-heparanase MM cell generated TGF-β activity.
For orientation: Reporter assays use an easily measured gene product as a stand-in for the process of interest.

For a further series, the system named is CAG human myeloma cells. Nature of the series: SCID-tibia MM model. Format: in vivo, SCID mice. The procedure:
Referring to FIG. 2A and FIG. 2B, CAG human myeloma cells were injected into the intratibial marrow space of SCID mice. After 2 weeks, tumors were imaged by bioluminescence and serum 1 g kappa levels measured. Mice were randomized to equalize 1 g kappa levels. Osmotic pumps were implanted subcutaneously to deliver saline or LSKL peptide (SEQ ID NO:1) (30 mg/kg/day) (n=10/group). Tumors were imaged and serum 1 g kappa levels measured at 2 and 4 weeks of treatment. Data are means SEM. Bioluminescence; *p=0.019 ANOVA, serum kappa; p=0.037, t-test.
Referring to FIG. 3A-C, at 4 weeks of treatment, tibiae from mice injected with CAG MM cells were fixed and stained with antibody to phosphor-Smad 2. Left panels are from 2 different saline treated mice and the right panels are from LSKL (SEQ ID NO:1)-treated mice. Pixels of brown staining were quantified in 4 fields per animal. 5-6 animals per group were analyzed. Data are the percent area exceeding the threshold for positive staining (FIG. 3A). […] P=0.004.

For another series, the system named is CAG MM cells. The experiment in a line: TGF-β activity in CAG MM cells (phospho-Smad 2 immunoblot). The following applies: 30 nM TSP1, 6 hrs. In kind it is cell-based, human. The procedure:
Referring to FIG. 4A, CAG MM cells were incubated with 30 nM TSP1 for 6 hrs LSKL (SEQ ID NO:1) or SLLK (SEQ ID NO:2). Cell lysates were immunoblotted for phosphor-Smad 2. Blots were stripped and reprobed for total Smad 2/3 and GAPDH. Results are normalized to GAPDH (untreated controls=1). LSKL (SEQ ID NO:1) reduces TSP1 induced treatment or luciferase activity in cells treated with active TGF-β (not shown).
For orientation: In western blotting, separated proteins are transferred to a membrane and probed.

For series [8], the target named is TSP1 (activation of recombinant latent TGF-β1) (Homo sapiens, UniProt P07996). The experiment in a line: Latent TGF-β activation by TSP1 in vitro (Quantikine ELISA for TGF-β1). The settings on record: TSP1 155 nM. Format: biochemical. As to the method: Previous studies have illustrated the ability of tripeptide analogs such as compound no. 93 to block latent TGF-β activation by TSP1 in vitro (see FIG. 5 and FIG. 6). Briefly, TSP1 (155 nM, 20 μg/ml) was incubated for 10 min at 37° C. with 93, LSKL (SEQ ID NO:1), or control SLLK (SEQ ID NO:2) peptide. The mixture was then incubated with […] recombinant latent TGF-β1 for 20 min at 37° C. TGF-β1 activity was measured using an R&D systems Quantikine ELISA for TGF-β1.
Sequence of TSP1 (activation of recombinant latent TGF-β1) (P07996 19-1170): as above

Series [9] deals with recombinant latent TGF-β1 (purchased from R&D Systems) (UniProt P01137). The experiment in a line: cell-based or functional assay.
Sequence of recombinant latent TGF-β1 (purchased from R&D Systems) (P01137 30-390 limits assumed): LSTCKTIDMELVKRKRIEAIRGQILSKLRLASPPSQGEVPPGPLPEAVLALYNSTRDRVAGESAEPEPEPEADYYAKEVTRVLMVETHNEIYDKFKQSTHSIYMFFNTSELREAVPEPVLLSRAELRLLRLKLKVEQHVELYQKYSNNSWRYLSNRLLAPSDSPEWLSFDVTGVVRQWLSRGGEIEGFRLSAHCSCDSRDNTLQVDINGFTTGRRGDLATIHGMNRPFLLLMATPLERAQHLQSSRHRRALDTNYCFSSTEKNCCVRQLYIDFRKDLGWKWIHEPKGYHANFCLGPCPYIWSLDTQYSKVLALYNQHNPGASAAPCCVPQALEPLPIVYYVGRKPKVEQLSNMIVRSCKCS
The mark [10] stands for this setting: Conc. of compound 1 pM (last column: 30 nM).
The mark [11] stands for this setting: Conc. of compound 50 pM (last column: 300 nM).
Setting [12] is: Conc. of compound 100 pM (last column: 3 μM).
Where [13] appears, read: ELISA-based assay, Table 2, read-out: % Inhibition at 50 pM.

≈ marks a conversion by molar mass, not a printed value. Where “and” joins values, the source holds several entries; their conditions need not be identical. Identical values can stand only once. Like-named read-outs stand apart in the source and are kept apart here. Non-standard residues stand in square brackets, D forms with d. Residues, ends and D or L forms follow the SMILES beside them. *: point of attachment. Orn = NCCC[C@H](N)C(=O)O; Ac5c = NC1(C(=O)O)CCCC1; Aib = CC(C)(N)C(=O)O; Butyryl = CCCC(=O)*

For `CC(=O)N[C@@H](CCCN)C(=O)NC(C)(C)C(N)=O` [Compound 8, (S)-2-acetamido-5-amino-N-(1-amino-2-methyl-1-oxopropan-2-yl)pentanamide] (Ac-[Orn]-[Aib]-NH2), the logD in the series “Log D” came to 1. For the same molecule, the Solubility in “Solubility” is 4.5 µM (≈ 1.16 µg/mL). In addition, the results for the “% Inhibition” value in [1] (setting [10]), in series [1] (setting [11]) and in series [1] (setting [12]) were 65%, 79% and 80%, respectively. The “Conc. of Active TGF-β (pM)” value in series [1] (setting [10]) is 2.3 pM; in series [1] (setting [11]), 0.81 pM; in series [1] (setting [12]), 0.78 pM. In addition, the inhibition at 0.3 µM in [1] (Homo sapiens, read-out: Secondary Assay: % Inhibition at 300 nM) is 92%. Moreover, in [2], the time to peak (Tmax) is 0.5 h. The bioavailability in [2] came out at 5%. Also, the half-life in series [2] (iv) is 1.9 h; in series [4], 5 h; in series [5], 2.84 h. Moreover, the inhibition at 50 pM came to 100% in series [3] (setting [13]) and 79% in series [3] (read-out: Primary Assay (% Inhibition at 50 pM)).

In the case of `CC(=O)N[C@@H](CCCN)C(=O)NC1(C(N)=O)CCCC1` [Compound 13, (S)-1-(2-Acetamido-5-aminopentanamido)cyclopentanecarboxamide] (Ac-[Orn]-[Ac5c]-NH2), the inhibition at 50 pM in series [3] (setting [13]) amounted to 35%.

Consider `CC(=O)N[C@@H](CCCN)C(=O)Nc1cc(C)c[nH]c1=O` [Compound 30, (S)-2-acetamido-5-amino-N-(5-methyl-2-oxo-1,2-dihydropyridin-3-yl)pentanamide], for which the inhibition at 50 pM in series [3] (setting [13]) came to 50%.

Take `CC(C)C[C@H](NC(=O)[C@H](CCCN)NC(=O)C1CCCC1)C(N)=O` [Compound 37, N—((S)-5-amino-1-(((S)-1-amino-4-methyl-1-oxopentan-2-yl)amino)-1-oxopentan-2-yl)cyclopentanecarboxamide]: the inhibition at 50 pM in [3] (setting [13]) came out at 30%.

Consider `CC(=O)N[C@@H](CC(C)C)C(=O)N[C@@H](CCCN)C(N)=O` [Compound 61, (S)-2-acetamido-N—((S)-1,5-diamino-1-oxopentan-2-yl)-4-methylpentanamide] (Ac-Leu-[Orn]-NH2), for which the “% Inhibition at 50 pM” value in series [3] (ELISA-based assay) was 63% and 99%.

As for `CCCC(=O)N[C@@H](CCCN)C(=O)N[C@@H](CC(C)C)C(N)=O` [Compound 63, (S)-5-amino-N—((S)-1-amino-4-methyl-1-oxopentan-2-yl)-2-butyramidopentanamide] (Butyryl-[Orn]-Leu-NH2), the “% Inhibition” value in [1] (setting [10]) stood at 67%; in [1] (setting [11]), 82%; in series [1] (setting [12]), 100%. In addition, the results for the “Conc. of Active TGF-β (pM)” value in series [1] (setting [10]), in series [1] (setting [11]) and in [1] (setting [12]) were 2.2 pM, 0.7 pM and 0 pM, respectively. Moreover, in series [3] (ELISA-based assay), the “% Inhibition at 50 pM” value is 59% and 85%.

In the case of `CC(=O)N[C@@H](CCCN)C(=O)NCC(N)=O` [Compound 82, (S)-2-acetamido-5-amino-N-(2-amino-2-oxoethyl)pentanamide] (Ac-[Orn]-Gly-NH2), the “% Inhibition” value was found to be 17% in [1] (setting [10]), 80% in [1] (setting [11]) and 100% in series [1] (setting [12]). Also, the “Conc. of Active TGF-β (pM)” value was determined as 4.2 pM in [1] (setting [10]), 0.79 pM in series [1] (setting [11]) and 0 pM in [1] (setting [12]). Also, in [3] (setting [13]), the inhibition at 50 pM came out at 100%.

As for LSKL, the “necropsy findings after treatment” value in series [6] was “no inflammation, no tumors in all major organs, and no impairment of wound healing”. Moreover, the “osteoblast differentiation by MSCs (alkaline phosphatase staining, Runx2 expression)” value (from here on “osteoblast differentiation by MSCs”) with MSCs was “Increases Osteoblast Differentiation”. In addition, in [7], the plasma stability half-life was 2.1 min. Also, the “block of CAG-heparanase MM cell generated TGF-β activity” value with CAG-heparanase MM cells is recorded as 80%. In addition, the “MM tumor burden (bioluminescence, serum Ig kappa)” value in the series with CAG human myeloma cells (30 mg/kg/day by subcutaneous osmotic pump, 2 and 4 weeks of treatment) was “Reduces Mm Tumor Burden”. In addition, in the series on CAG human myeloma cells (4 weeks of treatment, tibiae), the “phospho-Smad 2 staining in the bone marrow” value was “Reduces Phospho-Smad 2”. In addition, the “TGF-β activity in CAG MM cells (phospho-Smad 2)” value in the series with CAG MM cells is “Reduces TGF-B Activity”.

As to SLLK, the “latent TGF-β activation by TSP1 in vitro (TGF-β1 activity vs TSP1+latent TGF-β)” value in [8] is reported as “not significant”.

Take TGF-β: the “osteoblast differentiation by MSCs” value in the series on MSCs was “Decrease Osteoblast Differentiation”.

On to “Thrombospondin 1 (TSP1), purified human platelet TSP-1 (from UniProt P07996 19-1170)”, for which the Conc. of Active TGF-β (pM), ELISA which detects only active TGF-β in series [9] turned out to be 4.9 pM.

As for Thrombospondin 1 [TSP1], the “osteoblast differentiation by MSCs” value with MSCs is “Decrease Osteoblast Differentiation”. The “TGF-β activity in CAG MM cells (phospho-Smad 2)” value with CAG MM cells is reported as “Induces TGF-B Activity”.

Broadly, the logD is the decadic logarithm of the distribution of all forms, ionised or not, between an organic phase and buffer at a given pH. As a reminder, the Solubility is the concentration that dissolves in the medium under given conditions. By % Inhibition is commonly meant the relative decrease from the control value, in per cent. As a reminder, the inhibition is the change of the read-out against control, counted positive when it falls. The term Tmax denotes the time from dosing to the highest level. One may read the bioavailability as dose-corrected exposure relative to a reference, in per cent. A low value points to poor availability.
